Source: US20140343000A1 (priority 2011, published 2014)

test system: recombinant NL4-3 virus (Renilla luciferase in nef, Gag P373S; NLRluc) in MT-2 cells; assay: whole plant or invertebrate; assay type: cell-based, HIV; details: Renilla, NL43, luciferase activity in cells infected for 4-5 days with NLRluc recombinants, serial dilutions of inhibitor; class symbols (key in Table 1); read-out: EC50
Outline: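 MT-2 cells in RPMI 1640 with 10% heat-inactivated FBS were infected with the reporter virus, made by transfecting the proviral clone into 293T cells, and cultured 4-5 days with serial inhibitor dilutions. Antiviral activity was quantified from Renilla luciferase activity measured in lysed cells.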

**Q.** How did the EC50 turn out when C=C(C)[C@@H]1CC[C@]2(NC(=O)N3CCCN(CCO)CC3)CC[C@]3(C)[C@H](CC[C@@H]4[C@@]5(C)CC=C(c6ccc(C(=O)O)cc6)C(C)(C)[C@@H]5CC[C@]43C)[C@@H]12 [Example 51, 4-((1R,3aS,5aR,5bR,7aR,11aS,11bR,13aR,13bR)-3a-(4-(2-hydroxyethyl)-1,4-diazepane-1-carboxamido)-5a,5b,8,8,11a-pentamethyl-1-(prop-1-en-2-yl)-2,3,3a,4,5,5a,5b,6,7,7a,8,11,11a,11b,12,13,13a,13b-octadecahydro-1H-cyclopenta[a]chrysen-9-yl)benzoic acid] was run?
**A.** The EC50 was less than 100 nM.

**Q.** For C=C(C)[C@@H]1CC[C@]2(NC(=O)N(CCO)CCN(C)C)CC[C@]3(C)[C@H](CC[C@@H]4[C@@]5(C)CC=C(c6ccc(C(=O)O)cc6)C(C)(C)[C@@H]5CC[C@]43C)[C@@H]12 [Example 52, 4-((1R,3aS,5aR,5bR,7aR,11aS,11bR,13aR,13bR)-3a-(3-(2-(dimethylamino)ethyl)-3-(2-hydroxyethyl)ureido)-5a,5b,8,8,11a-pentamethyl-1-(prop-1-en-2-yl)-2,3,3a,4,5,5a,5b,6,7,7a,8,11,11a,11b,12,13,13a,13b-octadecahydro-1H-cyclopenta[a]chrysen-9-yl)benzoic acid], which EC50 is on record?
**A.** The EC50 was less than 100 nM.

**Q.** With C=C(C)[C@@H]1CC[C@]2(NC(=O)N(CCN3CCOCC3)CC(=O)O)CC[C@]3(C)[C@H](CC[C@@H]4[C@@]5(C)CC=C(c6ccc(C(=O)O)cc6)C(C)(C)[C@@H]5CC[C@]43C)[C@@H]12 [Example 53, 4-((1R,3aS,5aR,5bR,7aR,11aS,11bR,13aR,13bR)-3a-(3-(carboxymethyl)-3-(2-morpholinoethyl)ureido)-5a,5b,8,8,11a-pentamethyl-1-(prop-1-en-2-yl)-2,3,3a,4,5,5a,5b,6,7,7a,8,11,11a,11b,12,13,13a,13b-octadecahydro-1H-cyclopenta[a]chrysen-9-yl)benzoic acid] as the compound, how does the EC50 read?
**A.** The EC50 was less than 100 nM.

**Q.** With C=C(C)[C@@H]1CC[C@]2(NC(=O)N3CCN(C)CC3)CC[C@]3(C)[C@H](CC[C@@H]4[C@@]5(C)CC=C(c6ccc(C(=O)O)cc6)C(C)(C)[C@@H]5CC[C@]43C)[C@@H]12 [Example 54, 4-((1R,3aS,5aR,5bR,7aR,11aS,11bR,13aR,13bR)-5a,5b,8,8,11a-pentamethyl-3a-(4-methylpiperazine-1-carboxamido)-1-(prop-1-en-2-yl)-2,3,3a,4,5,5a,5b,6,7,7a,8,11,11a,11b,12,13,13a,13b-octadecahydro-1H-cyclopenta[a]chrysen-9-yl)benzoic acid] as the compound, how does the EC50 read?
**A.** Its EC50 is less than 100 nM.

**Q.** Which EC50 does the source give for C=C(C)[C@@H]1CC[C@]2(NC(=O)N3CCCNCC3)CC[C@]3(C)[C@H](CC[C@@H]4[C@@]5(C)CC=C(c6ccc(C(=O)O)cc6)C(C)(C)[C@@H]5CC[C@]43C)[C@@H]12 [Example 55, 4-((1R,3aS,5aR,5bR,7aR,11aS,11bR,13aR,13bR)-3a-(1,4-diazepane-1-carboxamido)-5a,5b,8,8,11a-pentamethyl-1-(prop-1-en-2-yl)-2,3,3a,4,5,5a,5b,6,7,7a,8,11,11a,11b,12,13,13a,13b-octadecahydro-1H-cyclopenta[a]chrysen-9-yl)benzoic acid] here?
**A.** The EC50 was less than 100 nM.

**Q.** For C=C(C)[C@@H]1CC[C@]2(NC(=O)N3CCNC(=O)C3CC(=O)O)CC[C@]3(C)[C@H](CC[C@@H]4[C@@]5(C)CC=C(c6ccc(C(=O)O)cc6)C(C)(C)[C@@H]5CC[C@]43C)[C@@H]12 (stereo partly drawn) [Example 56, 4-((1R,3aS,5aR,5bR,7aR,11aS,11bR,13aR,13bR)-3a-(2-(carboxymethyl)-3-oxopiperazine-1-carboxamido)-5a,5b,8,8,11a-pentamethyl-1-(prop-1-en-2-yl)-2,3,3a,4,5,5a,5b,6,7,7a,8,11,11a,11b,12,13,13a,13b-octadecahydro-1H-cyclopenta[a]chrysen-9-yl)benzoic acid], which EC50 is on record?
**A.** Its EC50 is less than 100 nM.

**Q.** Which EC50 does the source give for C=C(C)[C@@H]1CC[C@]2(NC(=O)N3CCNC(=O)C3)CC[C@]3(C)[C@H](CC[C@@H]4[C@@]5(C)CC=C(c6ccc(C(=O)O)cc6)C(C)(C)[C@@H]5CC[C@]43C)[C@@H]12 [Example 57, 4-((1R,3aS,5aR,5bR,7aR,11aS,11bR,13aR,13bR)-5a,5b,8,8,11a-pentamethyl-3a-(3-oxopiperazine-1-carboxamido)-1-(prop-1-en-2-yl)-2,3,3a,4,5,5a,5b,6,7,7a,8,11,11a,11b,12,13,13a,13b-octadecahydro-1H-cyclopenta[a]chrysen-9-yl)benzoic acid] here?
**A.** The EC50 was less than 100 nM.

**Q.** C=C(C)[C@@H]1CC[C@]2(NC(=O)N(CCN)CC(=O)O)CC[C@]3(C)[C@H](CC[C@@H]4[C@@]5(C)CC=C(c6ccc(C(=O)O)cc6)C(C)(C)[C@@H]5CC[C@]43C)[C@@H]12 [Example 58, 4-((1R,3aS,5aR,5bR,7aR,11aS,11bR,13aR,13bR)-3a-(3-(2-aminoethyl)-3-(carboxymethyl)ureido)-5a,5b,8,8,11a-pentamethyl-1-(prop-1-en-2-yl)-2,3,3a,4,5,5a,5b,6,7,7a,8,11,11a,11b,12,13,13a,13b-octadecahydro-1H-cyclopenta[a]chrysen-9-yl)benzoic acid] was tested. Which EC50 did it give?
**A.** Its EC50 is less than 100 nM.

**Q.** For C=C(C)[C@@H]1CC[C@]2(NC(=O)N3CCN(C(=O)OC(C)(C)C)CC3CC(=O)O)CC[C@]3(C)[C@H](CC[C@@H]4[C@@]5(C)CC=C(c6ccc(C(=O)O)cc6)C(C)(C)[C@@H]5CC[C@]43C)[C@@H]12 (stereo partly drawn) [Example 59, 4-((1R,3aS,5aR,5bR,7aR,11aS,11bR,13aR,13bR)-3a-(4-(tert-butoxycarbonyl)-2-(carboxymethyl)piperazine-1-carboxamido)-5a,5b,8,8,11a-pentamethyl-1-(prop-1-en-2-yl)-2,3,3a,4,5,5a,5b,6,7,7a,8,11,11a,11b,12,13,13a,13b-octadecahydro-1H-cyclopenta[a]chrysen-9-yl)benzoic acid], which EC50 is on record?
**A.** Its EC50 is less than 100 nM.

**Q.** For C=C(C)[C@@H]1CC[C@]2(NC(=O)NCCCCCN(C)C)CC[C@]3(C)[C@H](CC[C@@H]4[C@@]5(C)CC=C(c6ccc(C(=O)O)cc6)C(C)(C)[C@@H]5CC[C@]43C)[C@@H]12 [Example 60, 4-((1R,3aS,5aR,5bR,7aR,11aS,11bR,13aR,13bR)-3a-(3-(5-(dimethylamino)pentyl)ureido)-5a,5b,8,8,11a-pentamethyl-1-(prop-1-en-2-yl)-2,3,3a,4,5,5a,5b,6,7,7a,8,11,11a,11b,12,13,13a,13b-octadecahydro-1H-cyclopenta[a]chrysen-9-yl)benzoic acid], which EC50 is on record?
**A.** The EC50 was less than 100 nM.

**Q.** For C=C(C)[C@@H]1CC[C@]2(NC(=O)N(CCO)CCN3CCS(=O)(=O)CC3)CC[C@]3(C)[C@H](CC[C@@H]4[C@@]5(C)CC=C(c6ccc(C(=O)O)cc6)C(C)(C)[C@@H]5CC[C@]43C)[C@@H]12 [Example 65, 4-((1R,3aS,5aR,5bR,7aR,11aS,11bR,13aR,13bR)-3a-(((2-(1,1-dioxido-4-thiomorpholinyl)ethyl)(2-hydroxyethyl)carbamoyl)amino)-1-isopropenyl-5a,5b,8,8,11a-pentamethyl-2,3,3a,4,5,5a,5b,6,7,7a,8,11,11a,11b,12,13,13a,13b-octadecahydro-1H-cyclopenta[a]chrysen-9-yl)benzoic acid], which EC50 is on record?
**A.** Its EC50 is less than 100 nM.

**Q.** C=C(C)[C@@H]1CC[C@]2(NC(=O)N(CCCO)CCN3CCS(=O)(=O)CC3)CC[C@]3(C)[C@H](CC[C@@H]4[C@@]5(C)CC=C(c6ccc(C(=O)O)cc6)C(C)(C)[C@@H]5CC[C@]43C)[C@@H]12 [Example 66, 4-((1R,3aS,5aR,5bR,7aR,11aS,11bR,13aR,13bR)-3a-(((2-(1,1-dioxido-4-thiomorpholinyl)ethyl)(3-hydroxypropyl)carbamoyl)amino)-1-isopropenyl-5a,5b,8,8,11a-pentamethyl-2,3,3a,4,5,5a,5b,6,7,7a,8,11,11a,11b,12,13,13a,13b-octadecahydro-1H-cyclopenta[a]chrysen-9-yl)benzoic acid] was tested. Which EC50 did it give?
**A.** The EC50 was less than 100 nM.

**Q.** Which EC50 does the source give for C=C(C)[C@@H]1CC[C@]2(NC(=O)N(CCOC)CCN3CCS(=O)(=O)CC3)CC[C@]3(C)[C@H](CC[C@@H]4[C@@]5(C)CC=C(c6ccc(C(=O)O)cc6)C(C)(C)[C@@H]5CC[C@]43C)[C@@H]12 [Example 67, 4-((1R,3aS,5aR,5bR,7aR,11aS,11bR,13aR,13bR)-3a-(((2-(1,1-dioxido-4-thiomorpholinyl)ethyl)(2-methoxyethyl)carbamoyl)amino)-1-isopropenyl-5a,5b,8,8,11a-pentamethyl-2,3,3a,4,5,5a,5b,6,7,7a,8,11,11a,11b,12,13,13a,13b-octadecahydro-1H-cyclopenta[a]chrysen-9-yl)benzoic acid] here?
**A.** The EC50 was less than 100 nM.

**Q.** Which EC50 does the source give for C=C(C)[C@@H]1CC[C@]2(NC(=O)N(CCCOC)CCN3CCS(=O)(=O)CC3)CC[C@]3(C)[C@H](CC[C@@H]4[C@@]5(C)CC=C(c6ccc(C(=O)O)cc6)C(C)(C)[C@@H]5CC[C@]43C)[C@@H]12 [Example 68, 4-((1R,3aS,5aR,5bR,7aR,11aS,11bR,13aR,13bR)-3a-(((2-(1,1-dioxido-4-thiomorpholinyl)ethyl)(3-methoxypropyl)carbamoyl)amino)-1-isopropenyl-5a,5b,8,8,11a-pentamethyl-2,3,3a,4,5,5a,5b,6,7,7a,8,11,11a,11b,12,13,13a,13b-octadecahydro-1H-cyclopenta[a]chrysen-9-yl)benzoic acid] here?
**A.** Its EC50 is less than 100 nM.

**Q.** For C=C(C)[C@@H]1CC[C@]2(NC(=O)N(CCN3CCS(=O)(=O)CC3)CCN3CCS(=O)(=O)CC3)CC[C@]3(C)[C@H](CC[C@@H]4[C@@]5(C)CC=C(c6ccc(C(=O)O)cc6)C(C)(C)[C@@H]5CC[C@]43C)[C@@H]12 [Example 69, 4-((1R,3aS,5aR,5bR,7aR,11aS,11bR,13aR,13bR)-3a-((bis(2-(1,1-dioxido-4-thiomorpholinyl)ethyl)carbamoyl)amino)-1-isopropenyl-5a,5b,8,8,11a-pentamethyl-2,3,3a,4,5,5a,5b,6,7,7a,8,11,11a,11b,12,13,13a,13b-octadecahydro-1H-cyclopenta[a]chrysen-9-yl)benzoic acid], which EC50 is on record?
**A.** The EC50 was less than 100 nM.
